The assay addresses T1, AtSWEET4 (Arabidopsis thaliana, UniProt Q944M5).
T1 sequence (Q944M5 1-251): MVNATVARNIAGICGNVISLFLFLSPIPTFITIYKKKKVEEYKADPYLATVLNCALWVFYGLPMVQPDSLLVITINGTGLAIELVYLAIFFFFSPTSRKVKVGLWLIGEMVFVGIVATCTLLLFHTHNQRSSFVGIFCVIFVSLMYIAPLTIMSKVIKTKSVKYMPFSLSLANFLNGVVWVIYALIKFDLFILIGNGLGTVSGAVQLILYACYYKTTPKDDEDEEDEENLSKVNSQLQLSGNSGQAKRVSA
The assay is described as follows: […]-radiolabeled uptake in yeast EBY4000. To be noted: labelled compound; positive control; n = 3. It counts as cell-based.

Consider `OCC1(O)OC[C@@H](O)[C@@H](O)[C@@H]1O` (stereo partly drawn) [D-fructose], for which the uptake entry is “D-mannose and D-fructose transporter AtSWEET4 serves as a positive control”.

For `OC[C@H]1OC(O)[C@@H](O)[C@@H](O)[C@@H]1O` (stereo partly drawn) [D-mannose], the uptake result was “D-mannose and D-fructose transporter AtSWEET4 serves as a positive control”.
